# Test results: patent publication US4098706A, “Lubricating agents for thermoplastic materials and process for preparing the same” (Sapchim-Fournier-Cimag, priority 1975, dated 1978)
# Where two headings read alike, the source gives them in different places.
# Experiments:
# [1] = Extractibility of the lubricating agents from bottles by solvents simulating food and drink, 49° C; format: physicochemical
# Procedure: The lubricating agents according to the invention may be used to lubricate polymers which are intended for the manufacture of packaging and containers for food and drink and its was therefore necessary, in spite of their low toxicity, to determine their extractibility by various solvents simulating food and drink, namely water, ethanol-water 50/50, an aqueous solution of acetic acid (3%) and heptane.
# This study was carried out in accordance with the requirements of the Food and Drug Administration (U.S.A.).
# The extractions were performed in semi-rigid bottles, prepared with the resins given hereabove.
# The ratio of the volume of solvent to the surface of plastic material exposed to extraction was about […], taking into account the geometric characteristics of the bottles.
# Heating--: A thermostated oven for the non-inflammable solvents (water and acetic acid) A thermostated water-bath for the inflammable solvents (alcohol and heptane)
# This was, in each case, intentionally longer than that which would have given stable maximum values.
# The following periods of duration were in fact, observed:
# Acetic acid (3%) : 15 days
# Aqueous ethanol: 3 to 4 days
# The quantity of lubricating agent extracted was determined by thin layer chromatography, by comparison with a standard scale.
# A blank trial was carried out with control bottles containing no lubricating agent and a purely negative result was obtained.
# The amounts of lubricating agent determined are expressed in μg/ml of extraction solvent or, which is the same, per cm^2 of surface submitted to extraction.
# [2] = test system: mice
# [3] = Tendency for bubbles to appear in the polyvinyl chlorides containing the lubricating agents; format: physicochemical
# Source text: It is known that a release of gaz during preparation of the resin and particularly at the moment of extrusion or blowing is a grave disadvantage when manufacturing objects such as bottles because it may lead to the formation of visible bubbles in the plastic.
# [4] = Formula 913, acetic acid (3%), 15 days
# [5] = Formula 913, aqueous ethanol, 3 to 4 days
# [6] = Formula 914, acetic acid (3%), 15 days
# [7] = Formula 914, aqueous ethanol, 3 to 4 days
# [8] = Formula 915, acetic acid (3%), 15 days
# [9] = Formula 915, aqueous ethanol, 3 to 4 days
smiles,measurement,setting,value
"CCCCCCCCCCCCCCCCCCCCCC(=O)OCCSCCOC(=O)CCCCCCCCCCCCCCCCCCCCC [Compound 2, Thiodiglycol dibehenate]",Amount of lubricating agent extracted,[1]; [4],0.4 µg/mL
same,Amount of lubricating agent extracted,[1]; [5],0.6 µg/mL
same,Amount of lubricating agent extracted,"[1]; Formula 913, heptane, 3 days",1.3 µg/mL
same,Amount of lubricating agent extracted,"[1]; Formula 913, water, 15 days",0.13 µg/mL
same,Amount of lubricating agent extracted,[1]; [6],0.13 µg/mL
same,Amount of lubricating agent extracted,[1]; [7],0.13 µg/mL
same,Amount of lubricating agent extracted,"[1]; Formula 914, heptane, 3 days",0.8 µg/mL
same,Amount of lubricating agent extracted,"[1]; Formula 914, water, 15 days",0.13 µg/mL
same,Amount of lubricating agent extracted,[1]; [8],0.13 µg/mL
same,Amount of lubricating agent extracted,[1]; [9],0.13 µg/mL
same,Amount of lubricating agent extracted,"[1]; Formula 915, heptane, 3 days",0.6 µg/mL
same,Amount of lubricating agent extracted,"[1]; Formula 915, water, 15 days",0.13 µg/mL
same,Toxic symptoms,"[2]; oral, mice",none
"CCCCCCCCCCCCCCCCCCCCCC(=O)OCCOCCOCCOC(=O)CCCCCCCCCCCCCCCCCCCCC [Compound 4, Triethyleneglycol dibehenate]",Toxic symptoms,"[2]; mouse, in vivo, po",none
"CCCCCCCCCCCCCCCCCCCCCC(=O)OCC(COC(=O)CCCCCCCCCCCCCCCCCCCCC)(COC(=O)CCCCCCCCCCCCCCCCCCCCC)COC(=O)CCCCCCCCCCCCCCCCCCCCC [Compound 9, Pentaerythrite tetrabehenate]",Amount of lubricating agent extracted,[1]; [4],0.26 µg/mL
same,Amount of lubricating agent extracted,[1]; [5],0.13 µg/mL
same,Amount of lubricating agent extracted,"[1]; Formula 913, heptane, 3 days",0.26 µg/mL
same,Amount of lubricating agent extracted,"[1]; Formula 913, water, 15 days",0.13 µg/mL
same,Toxic symptoms,"[2]; mouse, in vivo, po",none
same,Observations (release of gas),[3],Slight release
same,Temperature at which bubbles appear,[3],195 °C
"CCCCCCCCCCCCCCCCCCCCCC(=O)OCCCCOC(=O)CCCCCCCCCCCCCCCCCCCCC [Compound 7, 1,4-butanediol dibehenate]",Amount of lubricating agent extracted,[1]; [6],0.13 µg/mL
same,Amount of lubricating agent extracted,[1]; [7],0.13 µg/mL
same,Amount of lubricating agent extracted,"[1]; Formula 914, heptane, 3 days",0.8 µg/mL
same,Amount of lubricating agent extracted,"[1]; Formula 914, water, 15 days",0.13 µg/mL
same,Toxic symptoms,"[2]; mouse, in vivo, po",none
CCCCCCCCCCCCCCCCCCCCCC(=O)O [calcium behenate],Toxic symptoms,"[2]; mouse, in vivo, po",none
"CCCCCCCCCCCCCCCCCCCCCC(=O)OCC(C)OC(=O)CCCCCCCCCCCCCCCCCCCCC (stereo not shown) [Compound 1, 1,2-propanediol dibehenate]",Amount of lubricating agent extracted,[1]; [8],0.13 µg/mL
same,Amount of lubricating agent extracted,[1]; [9],0.13 µg/mL
same,Amount of lubricating agent extracted,"[1]; Formula 915, heptane, 3 days",0.26 µg/mL
same,Amount of lubricating agent extracted,"[1]; Formula 915, water, 15 days",0.13 µg/mL
same,Toxic symptoms,"[2]; mouse, in vivo, po",none
same,Observations (release of gas),[3],No release
same,Temperature at which bubbles appear,[3],250 °C
"CCCCCCCCCCCCCCCCCCCCCC(=O)OCC(COC(=O)CCCCCCCCCCCCCCCCCCCCC)OC(=O)CCCCCCCCCCCCCCCCCCCCC [Compound 8, Glyceryl tribehenate]",Toxic symptoms,"[2]; mouse, in vivo, po",none
same,Observations (release of gas),[3],Slight release
same,Temperature at which bubbles appear,[3],230 °C
